Counter-ions that a name gives are not always drawn.
Tests used:
[1] = tested on: influenza virus (IFV) A/California/07/2009 (H1N1) pdm09 strain; assay: In vitro activity against influenza virus (CPE, CCK8, MDCK cells); format: cell-based; conditions: 120 h; for EC50: read-out: IFV (MDCK) EC50
[2] = tested on: respiratory syncytial virus (RSV) A long strain; assay: In vitro activity against respiratory syncytial virus (CPE, CCK8, HEp-2 cells); format: cell-based; conditions: human respiratory syncytial virus, 120 h, MOI=0.02, 5 days; for inhibition at 5 µM: read-out: RSV (HEp-2) inhibition rate at a concentration of 5 μM
in vitro = conditions: dog
[3] = Cytotoxicity in HEp-2 cells (CCK8); conditions: human
[4] = Stability test of compounds in solutions at different pH values
SFTSV-Nluc = assay: microbe, parasite or virus in culture; format: cell-based, severe fever with thrombocytopenia syndrome virus (SFTSV); conditions: Severe fever with thrombocytopenia syndrome virus, Vero, 48 h; for inhibition at 10 µM: read-out: Inhibition rate (10 μM)

Row | SMILES | EC50 [1] | EC50 [2] | CC50 (in vitro) | CC50 at 5 days [3] | further results
1 | CC(C)C(=O)OCn1c(=O)ccn([C@@H]2O[C@](F)(CO)[C@@H](O)[C@H]2O)c1=O [Compound X43] | 500 nM | 2320 nM | > 10000 nM | > 10000 nM | –
2 | CCC(CC)C(=O)OCn1c(=O)ccn([C@@H]2O[C@](F)(COC(=O)C(C)C)[C@@H](O)[C@H]2O)c1=O [Compound X52] | 570 nM | 4850 nM | > 10000 nM | > 10000 nM | Content reduction (%) ([4]; buffered saline solution pH 4.0, 3 h): 0.9%; Content reduction (%) ([4]; buffered saline solution pH 4.0, 6 h): 1.4%; Content reduction (%) ([4]; buffered saline solution pH 4.0, 9 h): 1.9%; Content reduction (%) ([4]; buffered saline solution pH 4.0, 12 h): 2.2%; Content reduction (%) ([4]; buffered saline solution pH 4.0, 15 h): 2.6%; Content reduction (%) ([4]; buffered saline solution pH 4.0, 18 h): 3.0%; Content reduction (%) ([4]; buffered saline solution pH 4.0, 21 h): 3.4%; Content reduction (%) ([4]; buffered saline solution pH 4.0, 24 h): 3.6%; Content reduction (%) ([4]; buffered saline solution pH 6.8, 3 h): 1.2%; Content reduction (%) ([4]; buffered saline solution pH 6.8, 6 h): 2.3%; Content reduction (%) ([4]; buffered saline solution pH 6.8, 9 h): 3.3%; Content reduction (%) ([4]; buffered saline solution pH 6.8, 12 h): 4.3%; Content reduction (%) ([4]; buffered saline solution pH 6.8, 15 h): 5.4%; Content reduction (%) ([4]; buffered saline solution pH 6.8, 18 h): 6.6%; Content reduction (%) ([4]; buffered saline solution pH 6.8, 21 h): 7.6%; Content reduction (%) ([4]; buffered saline solution pH 6.8, 24 h): 8.7%
3 | CCC(CC)C(=O)OC[C@@]1(F)O[C@@H](n2ccc(=O)n(COC(=O)C(C)C)c2=O)[C@H](O)[C@@H]1O [Compound X57] | – | – | > 5000 nM | > 5000 nM | inhibition at 5 µM ([1]; read-out: IFV (MDCK) inhibition rate at a concentration of 5 μM): 90.5%; inhibition at 5 µM [2]: 50.3%
4 | CC(C)C(=O)OCn1c(=O)ccn([C@@H]2O[C@](F)(COC(=O)C3CCCCC3)[C@@H](O)[C@H]2O)c1=O [Compound X61] | < 370 nM | 2040 nM | > 10000 nM | > 10000 nM | EC50 (SFTSV-Nluc): 590 nM; inhibition at 10 µM (SFTSV-Nluc): 96.1%
5 | O=C(OCn1c(=O)ccn([C@@H]2O[C@](F)(COC(=O)C3CCCCC3)[C@@H](O)[C@H]2O)c1=O)C1CCCCC1 [Compound X63] | < 370 nM | 1510 nM | > 10000 nM | > 10000 nM | –
6 | CC(C)C(=O)OCn1c(=O)ccn([C@@H]2O[C@](F)(COC(=O)[C@@H](N)C(C)C)[C@@H](OC(=O)C(C)C)[C@H]2OC(=O)C(C)C)c1=O [Compound X79] | 480 nM | 1460 nM | > 10000 nM | > 10000 nM | inhibition at 10 µM (SFTSV-Nluc): < 10%
7 | CC(C)C(=O)OC[C@@]1(F)O[C@@H](n2ccc(=O)n(COC(=O)[C@@H](N)C(C)C)c2=O)[C@H](OC(=O)C(C)C)[C@@H]1OC(=O)C(C)C [Compound X98] | 500 nM | 1420 nM | > 10000 nM | > 10000 nM | EC50 (SFTSV-Nluc): 1160 nM; inhibition at 10 µM (SFTSV-Nluc): 95.7%
8 | CC(C)C(=O)OCn1c(=O)ccn([C@@H]2O[C@](F)(COC(=O)C(C)C)[C@H]3OC(=O)O[C@@H]23)c1=O [Compound X113] | < 370 nM | 1970 nM | > 10000 nM | > 10000 nM | –
9 | CC(C)=CCOc1ccn([C@@H]2O[C@](F)(COC(=O)C(C)C)[C@@H](O)[C@H]2O)c(=O)n1 [Compound X134] | 460 nM | 1200 nM | > 10000 nM | > 10000 nM | –
10 | CC(C)C(=O)OCn1c(=O)ccn([C@@H]2O[C@](F)(CO)[C@H]3OC(=O)O[C@@H]23)c1=O [Compound X173] | 460 nM | 2620 nM | > 10000 nM | > 10000 nM | –
11 | CC(C)C(=O)OC[C@@]1(F)O[C@@H](n2ccc(=O)n(COC(=O)CCCN(C)C)c2=O)[C@@H]2OC(=O)O[C@@H]21 [Compound X185] | – | – | – | > 5000 nM | inhibition at 5 µM [2]: 94.7%
12 | O=C(/C=C/c1ccccc1)OCn1c(=O)ccn([C@@H]2O[C@](F)(COC(=O)/C=C/c3ccccc3)[C@@H](O)[C@H]2O)c1=O [Compound X198] | – | 2450 nM | – | > 10000 nM | –
13 | CCCCCCCCCCCC(=O)OCn1c(=O)ccn([C@@H]2O[C@](F)(COC(=O)CCCCCCCCCCC)[C@@H](O)[C@H]2O)c1=O [Compound X199] | 410 nM | 460 nM | > 10000 nM | > 10000 nM | EC50 (SFTSV-Nluc): 2790 nM; inhibition at 10 µM (SFTSV-Nluc): 96.1%
14 | CCCCCCCCCCCCCCCC(=O)OCn1c(=O)ccn([C@@H]2O[C@](F)(COC(=O)CCCCCCCCCCCCCCC)[C@@H](O)[C@H]2O)c1=O [Compound X200] | 2290 nM | 1170 nM | > 10000 nM | > 10000 nM | –
15 | CC(C)C(=O)OCn1c(=O)ccn([C@@H]2O[C@](F)(COC(=O)C(C)C)[C@@H](OC(=O)C(C)C)[C@H]2OC(=O)C(C)C)c1=O [Compound X201] | 560 nM | 1510 nM | > 10000 nM | > 10000 nM | –
16 | CC(C)C(=O)OC[C@@]1(F)O[C@@H](n2ccc(=O)n(COC(=O)C3CCNCC3)c2=O)[C@H](OC(=O)C(C)C)[C@@H]1OC(=O)C(C)C [Compound X204] | 650 nM | 1520 nM | > 10000 nM | > 10000 nM | –

Row | SMILES | EC50 [1] | EC50 [2] | CC50 (in vitro) | CC50 at 5 days [3] | further results
17 | CC(C)C(=O)OC[C@@]1(F)O[C@@H](n2ccc(=O)n(COC(=O)C3CCN(C)CC3)c2=O)[C@H](OC(=O)C(C)C)[C@@H]1OC(=O)C(C)C [Compound X205] | < 370 nM | 2560 nM | > 10000 nM | > 10000 nM | –
18 | CC(C)C(=O)OC[C@@]1(F)O[C@@H](n2ccc(=O)n(COC(=O)c3cccnc3)c2=O)[C@H](O)[C@@H]1O [Compound X207] | 380 nM | 4090 nM | > 10000 nM | > 10000 nM | EC50 (SFTSV-Nluc): 1890 nM; inhibition at 10 µM (SFTSV-Nluc): 91.8%
19 | CC(C)C(=O)OCn1c(=O)ccn([C@@H]2O[C@](F)(COC(=O)c3cccnc3)[C@@H](O)[C@H]2O)c1=O [Compound X208] | < 370 nM | 1090 nM | > 10000 nM | – | –
20 | CC(C)(C)C(=O)OC[C@@]1(F)O[C@@H](n2ccc(=O)n(COC(=O)c3cccnc3)c2=O)[C@H](O)[C@@H]1O [Compound X210] | < 370 nM | 1880 nM | > 10000 nM | > 10000 nM | –
21 | CCC(CC)C(=O)OC[C@@]1(F)O[C@@H](n2ccc(=O)n(COC(=O)c3cccnc3)c2=O)[C@H](O)[C@@H]1O [Compound X211] | 3340 nM | 5820 nM | > 10000 nM | > 10000 nM | –
22 | CC(C)C(=O)OC[C@@]1(F)O[C@@H](n2ccc(=O)n(COC(=O)c3cccnc3)c2=O)[C@@H]2OC(=O)O[C@@H]21 [Compound X214] | < 370 nM | 2090 nM | > 10000 nM | > 10000 nM | –
23 | CCC(=O)OC[C@@]1(F)O[C@@H](n2ccc(=O)n(COC(=O)c3cccnc3)c2=O)[C@H](OC(=O)CC)[C@@H]1OC(=O)CC [Compound X220] | 819 nM | 1290 nM | > 10000 nM | > 10000 nM | –
24 | CC(C)(C)C(=O)OCn1c(=O)ccn([C@@H]2O[C@](F)(COC(=O)c3cccnc3)[C@@H](O)[C@H]2O)c1=O [Compound X222] | < 370 nM | 770 nM | > 10000 nM | > 10000 nM | EC50 (SFTSV-Nluc): 3300 nM; inhibition at 10 µM (SFTSV-Nluc): 90.3%
25 | CCC(CC)C(=O)OCn1c(=O)ccn([C@@H]2O[C@](F)(COC(=O)c3cccnc3)[C@@H](O)[C@H]2O)c1=O [Compound X223] | 820 nM | 2140 nM | > 10000 nM | > 10000 nM | –
26 | O=C(OCn1c(=O)ccn([C@@H]2O[C@](F)(COC(=O)c3cccnc3)[C@@H](O)[C@H]2O)c1=O)c1cccnc1 [Compound X231] | 510 nM | 1160 nM | > 10000 nM | > 10000 nM | –
27 | O=C(OCn1c(=O)ccn([C@@H]2O[C@](F)(COC(=O)c3cccnc3)[C@@H](OC(=O)c3cccnc3)[C@H]2OC(=O)c2cccnc2)c1=O)c1cccnc1 [Compound X232] | 850 nM | 1130 nM | > 10000 nM | > 10000 nM | –
28 | O=C1O[C@H]2[C@H](n3ccc(=O)n(COC(=O)c4cccnc4)c3=O)O[C@](F)(COC(=O)c3cccnc3)[C@H]2O1 [Compound X233] | 460 nM | 1200 nM | > 10000 nM | > 10000 nM | –
29 | CC(C)C(=O)O[C@H]1[C@H](n2ccc(=O)n(COC(=O)c3cccnc3)c2=O)O[C@](F)(COC(=O)c2cccnc2)[C@H]1OC(=O)C(C)C [Compound X257] | 1380 nM | 1640 nM | > 10000 nM | > 10000 nM | –
30 | CCN(CC)CC(=O)OCn1c(=O)ccn([C@@H]2O[C@](F)(COC(=O)C(C)C)[C@@H](OC(=O)C(C)C)[C@H]2OC(=O)C(C)C)c1=O [Compound X260] | < 370 nM | 2340 nM | > 10000 nM | > 10000 nM | –
31 | CC(C)C(=O)OC[C@@]1(F)O[C@@H](n2ccc(=O)n(COC(=O)[C@@H]3CCCN3)c2=O)[C@H](OC(=O)C(C)C)[C@@H]1OC(=O)C(C)C [Compound X266] | 894 nM | 1020 nM | > 10000 nM | > 10000 nM | EC50 (SFTSV-Nluc): 2070 nM; inhibition at 10 µM (SFTSV-Nluc): 94.6%
32 | CC(C)C(=O)OC[C@@]1(F)O[C@@H](n2ccc(=O)n(COC(=O)CN(C)C)c2=O)[C@H](OC(=O)C(C)C)[C@@H]1OC(=O)C(C)C [X100 hydrochloride] | 410 nM | 1790 nM | > 10000 nM | > 10000 nM | –

From patent US20250282812A1, “ANTIVIRAL NUCLEOSIDE ANALOGUE, AND PHARMACEUTICAL COMPOSITION AND USE THEREOF” (SHANGHAI INSTITUTE OF MATERIA MEDICA , CHINESE ACADEMY OF …, priority 2022, published 2025)
